PubChem BioAssay (NCI)
Where “and” joins values, the source holds several entries; their conditions need not be identical. Identical values can stand only once.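 How tested: cells in 96-well plates exposed to compound for 48 hours at five concentrations. At the GI50, growth is halved. TGI: total growth inhibition.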

Columns and labels:
Assay in all cases: growth of human tumour cells (NCI), 48 h
[1] = system: SK-MEL-28 melanoma
[2] = system: DU-145 prostate
[3] = system: MDA-N
[4] = system: NCI-H226 lung
[5] = system: IGROV1 ovarian
[6] = system: OVCAR-4 ovarian
[7] = system: SR leukemia
[8] = system: NCI-H460 lung
[9] = system: NCI-H522 lung
[10] = system: HL-60(TB) leukemia

COC([C@@H](OC(=O)c1ccccc1)[C@H](OC(=O)c1ccccc1)C(O)COC(=O)c1ccccc1)n1cc(C)c(=O)[nH]c1=O (stereo not given in full)
TGI [1]: > 100 µM
TGI [2]: > 100 µM
TGI [3]: > 100 µM
TGI [4]: 74.5 µM
TGI [5]: > 100 µM
TGI [6]: 82.4 µM
TGI [7]: > 100 µM
TGI [8]: > 100 µM
TGI [9]: > 100 µM

COc1cc(CCN(C)C)cc(OC)c1OC
TGI [2]: > 100 µM
TGI [3]: > 100 µM
TGI [4]: > 100 µM
TGI [5]: > 100 µM
TGI [6]: > 100 µM
TGI [7]: > 100 µM
TGI [8]: > 100 µM
TGI [9]: > 100 µM
TGI [10]: > 100 µM

NC(=Nc1ccccc1)c1ccccc1N
TGI [1]: 64.4 µM
TGI [2]: > 100 µM
TGI [3]: > 100 µM
TGI [4]: > 100 µM
TGI [5]: > 100 µM
TGI [6]: > 100 µM
TGI [7]: > 100 µM
TGI [8]: > 100 µM
TGI [10]: > 100 µM

CC12CCC(C(=Nc3cc(C(F)(F)F)cc(C(F)(F)F)c3)C1=O)C2(C)C (stereo not given)
TGI [1]: > 100 µM
TGI [2]: > 100 µM
TGI [4]: > 100 µM
TGI [5]: 76.1 µM
TGI [6]: > 100 µM
TGI [7]: 46.4 µM
TGI [8]: > 100 µM
TGI [10]: 23.8 µM

COc1ccc2c(c1)CCN1CCCc3ccccc3C21 (stereo not given)
TGI [1]: > 100 µM
TGI [2]: > 100 µM
TGI [4]: > 100 µM
TGI [5]: > 100 µM
TGI [6]: > 100 µM
TGI [7]: > 100 µM
TGI [9]: > 100 µM

CN(Cc1cnc2nc(N)nc(N)c2n1)c1ccc(C(=O)NC(CCC(=O)NC(CC(P(=O)(O)O)P(=O)(O)O)C(=O)O)C(=O)O)cc1 (stereo not given)
TGI [1]: > 100 µM
TGI [2]: > 100 µM
TGI [3]: > 100 µM
TGI [4]: > 100 µM
TGI [5]: > 100 µM
TGI [6]: > 100 µM
TGI [7]: > 100 µM
TGI [8]: > 100 µM
TGI [9]: > 100 µM

CCCCCCCCCCCCCCCCCC(=O)Nc1ccn(C2CCC(COP(=O)(O)O)O2)c(=O)n1 (stereo not given)
TGI [1]: > 100 µM
TGI [2]: > 100 µM
TGI [4]: > 100 µM
TGI [5]: > 100 µM
TGI [6]: > 100 µM
TGI [7]: > 100 µM
TGI [9]: > 100 µM

Cc1c(-c2nnc(-c3ccccc3)o2)c(=O)n(-c2ccccc2)n1C
TGI [1]: > 100 µM
TGI [4]: > 100 µM
TGI [5]: > 100 µM
TGI [6]: > 100 µM
TGI [7]: > 100 µM
TGI [8]: > 100 µM
TGI [9]: > 100 µM
TGI [10]: > 100 µM

CC(=O)OCCCCn1cc(Cn2ccc(=O)n(Cc3cn(CCCCOC(C)=O)nn3)c2=O)nn1
TGI [1]: > 100 µM
TGI [2]: > 100 µM
TGI [3]: > 100 µM
TGI [4]: > 100 µM
TGI [5]: > 100 µM
TGI [6]: > 100 µM

O=C(CSc1nnc(-c2ccc(N=Cc3ccc(Cl)cc3)cc2)o1)Nc1ccc([N+](=O)[O-])cc1
TGI [1]: 33.7 µM
TGI [4]: 48.6 µM
TGI [6]: 84.9 µM
TGI [7]: 48.7 µM
TGI [8]: > 100 µM
TGI [9]: 38.3 µM
TGI [10]: 63.9 µM

CC(=O)NC1(C(=O)N[C@@H](Cc2ccccc2)C(=O)NC2CCCCC2)Cc2ccc3ccccc3c2-c2c(ccc3ccccc23)C1
GI50 [1]: 9.72 µM and 23.1 µM
TGI [1]: > 100 µM
GI50 [3]: 5.39 µM and 15.2 µM
TGI [3]: > 100 µM
GI50 [5]: 16.2 µM and 39.8 µM
TGI [5]: > 100 µM
GI50 [6]: 1.17 µM and 6.26 µM
TGI [6]: > 100 µM
TGI [7]: > 100 µM
TGI [8]: > 100 µM
GI50 [9]: 4.56 µM and 10.4 µM
TGI [9]: > 100 µM
TGI [10]: 26.2 µM and 27.4 µM

Cc1c2ccccc2c(C)n2c1nc1ccccc12
TGI [1]: 22.5 µM
TGI [2]: > 100 µM
TGI [3]: 25 µM
TGI [4]: 37.8 µM
TGI [5]: 43.8 µM
TGI [7]: > 100 µM
TGI [8]: 20.1 µM
TGI [10]: > 100 µM
